# In patent US20200131196A1 (Mount Tam Therapeutics, Inc., priority 2017, published 2020):
# Where two headings read alike, the source gives them in different places.
# What was measured:
# [1] = tested on: U-87 MG; assay: OncoPanel cell proliferation assay, U-87 MG; format: cell-based, human
# Description: (§1) Cells were grown in RPMI 1640, 10% FBS, 2 mM L-alanyl-L-glutamine, 1 mM Na pyruvate, or a special medium. Cells were seeded into 384-well plates and incubated in a humidified atmosphere of 5% CO2 at 37° C. Compounds were added the day following cell seeding. At the same time, a time zero untreated cell plate was generated. After a 3-day incubation period, cells were fixed and stained to allow fluorescence imaging of nuclei. Compounds (1 mM stock solutions) were serially diluted in half-log steps from the highest test concentration ([…]), and assayed over 10 concentrations with a maximum assay concentration of 0.1% DMSO. Automated fluorescence microscopy was carried out using a Molecular Devices ImageXpress Micro XL high-content imager, and images were collected with a 4× objective. 16-bit TIFF images were acquired and analyzed with MetaXpress 5.1.0.41 software.
# (§2) Cell proliferation was measured by the fluorescence intensity of an incorporated nuclear dye. The output is referred to as the relative cell count, where the measured nuclear intensity is transformed to percent of control (POC) using the following formula: […]
# (§3) Cellular response parameters were calculated using nonlinear regression to a sigmoidal single-site dose response model:
# (§4) EC50 is the test compound concentration at the curve inflection point or half the effective response (parameter C of the fitted curve solution). GI50 is the concentration needed to reduce the observed growth by half (midway between the curve maximum and the time zero value). “Cell Count Activity Area” is an estimate of the integrated area above the curve (Barretina, et al. The Cancer Cell Line Encyclopedia enables predictive modelling of anticancer drug sensitivity. Nature 483: 603-607). […] In rare instances, values <0 or >10 may be observed. […] Curve-fitting, calculations, and report generation was performed using a custom data reduction engine and MathIQ based software (AIM).
# [2] = tested on: SK-N-AS; assay: OncoPanel cell proliferation assay, SK-N-AS; format: cell-based, human
# Description: as §1, §2, §3, §4
# [3] = tested on: AsPC-1; assay: OncoPanel cell proliferation assay, AsPC-1
# Description: (§5) Cells were seeded into 384-well plates and incubated in a humidified atmosphere of 5% CO2 at 37° C. Compounds were added the day following cell seeding. At the same time, a time zero untreated cell plate was generated. After a 3-day incubation period, cells were fixed and stained to allow fluorescence imaging of nuclei. Compounds (1 mM stock solutions) were serially diluted in half-log steps from the highest test concentration (1 micromol), and assayed over 10 concentrations with a maximum assay concentration of 0.1% DMSO. Automated fluorescence microscopy was carried out using a Molecular Devices ImageXpress Micro XL high-content imager, and images were collected with a 4× objective. 16-bit TIFF images were acquired and analyzed with MetaXpress 5.1.0.41 software.
# [4] = tested on: U2OS; assay: OncoPanel cell proliferation assay, U2OS; format: cell-based, human
# Description: as §1, with “Cells” for “Cells were grown in RPMI 1640, 10% FBS, 2 mM L-alanyl-L-glutamine, 1 mM Na pyruvate, or a special medium. Cells”
# as §2, §3
# GI50 is the concentration needed to reduce the observed growth by half (midway between the curve maximum and the time zero value). […] In rare instances, values <0 or >10 may be observed. […] Curve-fitting, calculations, and report generation was performed using a custom data reduction engine and MathIQ based software (AIM).
# [5] = tested on: RKOE6; assay: OncoPanel cell proliferation assay, RKOE6
# Description: as §5
# [6] = tested on: TF-1; assay: OncoPanel cell proliferation assay, TF-1; format: cell-based, human
# Description: as §1, §2, §3, §4
# [7] = Homo sapiens, read-out: Cell Count EC50
# [8] = Homo sapiens, read-out: Cell Count GI50
# [9] = Homo sapiens, read-out: Cell Count IC50
smiles,measurement,setting,value
"CO[C@H]1C[C@@H]2CC[C@@H](C)[C@@](O)(O2)C(=O)C(=O)N2CCCC[C@H]2C(=O)O[C@H]([C@H](C)C[C@H]2C[C@H]3C[C@@H]2C[C@@H]3O)CC(=O)[C@H](C)/C=C(\C)[C@@H](O)[C@@H](OC)C(=O)[C@H](C)C[C@H](C)/C=C/C=C/C=C/1C [Formula II, C37-[(1R,2S,4R,5S)-5-hyhroxybicyclo[2.2.1]heptane] rapamycin]",Cell Count Activity Area,[1],3.76
same,Relative cell count (%) Mean,[1]; 1.00E+00 microM,48.9%
same,Relative cell count (%) Mean,[1]; 1.00E-01 microM,52.1%
same,Relative cell count (%) Mean,[1]; 1.00E-02 microM,70.4%
same,Relative cell count (%) Mean,[1]; 1.00E-03 microM,78.8%
same,Relative cell count (%) Mean,[1]; 1.01E-04 microM,101.1%
same,Relative cell count (%) Mean,[1]; 3.16E-01 microM,50.7%
same,Relative cell count (%) Mean,[1]; 3.17E-02 microM,60.4%
same,Relative cell count (%) Mean,[1]; 3.17E-03 microM,71.4%
same,Relative cell count (%) Mean,[1]; 3.18E-04 microM,85.3%
same,Relative cell count (%) Mean,[1]; 3.18E-05 microM,108.2%
same,EC50,[1]; [7],0.996 nM
same,GI50,[1]; [8],2.17 nM
same,IC50,[1]; [9],34.1 nM
same,Cell Count Activity Area,[2],3.12
same,Relative cell count (%) Mean,[2]; 1.00E+00 microM,49.7%
same,Relative cell count (%) Mean,[2]; 1.00E-01 microM,54.0%
same,Relative cell count (%) Mean,[2]; 1.00E-02 microM,55.3%
same,Relative cell count (%) Mean,[2]; 1.00E-03 microM,77.8%
same,Relative cell count (%) Mean,[2]; 1.01E-04 microM,99.5%
same,Relative cell count (%) Mean,[2]; 3.16E-01 microM,49.5%
same,Relative cell count (%) Mean,[2]; 3.17E-02 microM,55.1%
same,Relative cell count (%) Mean,[2]; 3.17E-03 microM,70.3%
same,Relative cell count (%) Mean,[2]; 3.18E-04 microM,89.7%
same,Relative cell count (%) Mean,[2]; 3.18E-05 microM,97.7%
same,EC50,[2]; [7],1.41 nM
same,GI50,[2]; [8],4.82 nM
same,IC50,[2]; [9],422 nM
same,Cell Count Activity Area,[3]; AsPC-1,1.68
same,Relative cell count (%) Mean,"[3]; AsPC-1, 1.00E+00 microM",70.3%
same,Relative cell count (%) Mean,"[3]; AsPC-1, 1.00E-01 microM",74.4%
same,Relative cell count (%) Mean,"[3]; AsPC-1, 1.00E-02 microM",89.3%
same,Relative cell count (%) Mean,"[3]; AsPC-1, 1.00E-03 microM",90.9%
same,Relative cell count (%) Mean,"[3]; AsPC-1, 1.01E-04 microM",105.4%
same,Relative cell count (%) Mean,"[3]; AsPC-1, 3.16E-01 microM",77.3%
same,Relative cell count (%) Mean,"[3]; AsPC-1, 3.17E-02 microM",81.7%
same,Relative cell count (%) Mean,"[3]; AsPC-1, 3.17E-03 microM",90.9%
same,Relative cell count (%) Mean,"[3]; AsPC-1, 3.18E-04 microM",97.5%
same,Relative cell count (%) Mean,"[3]; AsPC-1, 3.18E-05 microM",104.0%
same,EC50,"[3]; Homo sapiens, ASPC1",8.6 nM
same,EC50,"[3]; Homo sapiens, ASPC1, read-out: Cell Count EC50",8.56 nM
same,GI50,"[3]; Homo sapiens, ASPC1, read-out: Cell Count GI50",246 nM
same,IC50,"[3]; Homo sapiens, ASPC1, read-out: Cell Count IC50",> 1000 nM
same,Cell Count Activity Area,[4],2.61
same,Relative cell count (%) Mean,[4]; 1.00E+00 microM,49.8%
same,Relative cell count (%) Mean,[4]; 1.00E-01 microM,51.6%
same,Relative cell count (%) Mean,[4]; 1.00E-02 microM,66.4%
same,Relative cell count (%) Mean,[4]; 1.00E-03 microM,78.8%
same,Relative cell count (%) Mean,[4]; 1.01E-04 microM,98.9%
same,Relative cell count (%) Mean,[4]; 3.16E-01 microM,47.3%
same,Relative cell count (%) Mean,[4]; 3.17E-02 microM,56.3%
same,Relative cell count (%) Mean,[4]; 3.17E-03 microM,81.3%
same,Relative cell count (%) Mean,[4]; 3.18E-04 microM,98.6%
same,Relative cell count (%) Mean,[4]; 3.18E-05 microM,92.7%
same,EC50,[4]; [7],5.4 nM
same,GI50,[4]; [8],35 nM
same,IC50,[4]; [9],324 nM
same,EC50,"[5]; Homo sapiens, RKOE6, read-out: Cell Count EC50",1.13 nM
same,GI50,"[5]; Homo sapiens, RKOE6, read-out: Cell Count GI50",5.57 nM
same,IC50,"[5]; Homo sapiens, RKOE6, read-out: Cell Count IC50",14.2 nM
same,Cell Count Activity Area,[5]; RKOE6,3.66
same,Relative cell count (%) Mean,"[5]; RKOE6, 1.00E+00 microM",40.1%
same,Relative cell count (%) Mean,"[5]; RKOE6, 1.00E-01 microM",43.1%
same,Relative cell count (%) Mean,"[5]; RKOE6, 1.00E-02 microM",52.2%
same,Relative cell count (%) Mean,"[5]; RKOE6, 1.00E-03 microM",64.1%
same,Relative cell count (%) Mean,"[5]; RKOE6, 1.01E-04 microM",94.2%
same,Relative cell count (%) Mean,"[5]; RKOE6, 3.16E-01 microM",43.1%
same,Relative cell count (%) Mean,"[5]; RKOE6, 3.17E-02 microM",49.1%
same,Relative cell count (%) Mean,"[5]; RKOE6, 3.17E-03 microM",65.3%
same,Relative cell count (%) Mean,"[5]; RKOE6, 3.18E-04 microM",84.4%
same,Relative cell count (%) Mean,"[5]; RKOE6, 3.18E-05 microM",98.6%
same,Cell Count Activity Area,[6],1.08
same,Relative cell count (%) Mean,[6]; 1.00E+00 microM,80.8%
same,Relative cell count (%) Mean,[6]; 1.00E-01 microM,80.1%
same,Relative cell count (%) Mean,[6]; 1.00E-02 microM,82.8%
same,Relative cell count (%) Mean,[6]; 1.00E-03 microM,88.7%
same,Relative cell count (%) Mean,[6]; 1.01E-04 microM,93.1%
same,Relative cell count (%) Mean,[6]; 3.16E-01 microM,79.6%
same,Relative cell count (%) Mean,[6]; 3.17E-02 microM,81.7%
same,Relative cell count (%) Mean,[6]; 3.17E-03 microM,80.8%
same,Relative cell count (%) Mean,[6]; 3.18E-04 microM,89.0%
same,Relative cell count (%) Mean,[6]; 3.18E-05 microM,94.4%
same,EC50,[6]; [7],> 1000 nM
same,GI50,[6]; [8],> 1000 nM
same,IC50,[6]; [9],> 1000 nM
